Laboratory results: publication PMC12084349 (Communications Biology, 2025)

Assays:
[1] = molecular target: Hsp90-NTD (Homo sapiens, UniProt P07900); experiment: [1H, […]] HSQC NMR titration; assay type: binding
[2] = molecular target: Aha1 (Homo sapiens, UniProt O95433); experiment: ITC; assay type: binding
Chain of Aha1 (O95433 204-338): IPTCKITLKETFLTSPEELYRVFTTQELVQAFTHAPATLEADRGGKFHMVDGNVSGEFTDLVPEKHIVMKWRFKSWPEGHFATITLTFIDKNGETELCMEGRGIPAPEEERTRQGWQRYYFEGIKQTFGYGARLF

Kd [1]: 15.1 ± 3.86 µM
Kd [2]: 0.84 ± 0.35 µM
SMILES: CCc1oc2ccccc2c1C(=O)c1cc(Br)c(O)c(Br)c1 [Benzbromarone]
